Earlier results on one molecule are cited in patent publication US6528086B2, “Methods and apparatus for drug delivery involving phase changing formulations” (Zars, Inc., priority 1999, dated 2003).

Each structure is given as a SMILES string.

In this data set the test system is tissues. To be noted: in vivo.

On to `CCCCNc1ccc(C(=O)OCCN(C)C)cc1` [Tetracaine], for which the “duration of anesthetic effect compared with lidocaine” value is reported as “longer lasting anesthetic effect on tissues than lidocaine”.
